Experimental data: patent US9462793B2, “Mouse carrying a knock-out mutation of the Qpct-gene” (PROBIODRUG AG, priority 2008, dated 2016)

Assays:
Qpct [1] = target: T1, Qpct (Homo sapiens, UniProt Q16769); test: Inhibition of Qpct by chelators (metal dependence); type: biochemical; settings: human Qpct and other animal Qpcts
mammalian Qpct = settings: cited from earlier work
Qpct [2] = target: T1, Qpct; test: pH-dependence of Qpct catalyzed conversion of Glu-βNA; type: biochemical
Source text: (§1) However, in the pH-range of about 5.2-6.5, between their respective pKa-values, the two functional groups are present both in non-ionized forms, in concentrations of about 1-10% (—NH2) or 10-1% (—COOH) of total N-terminal Glu-containing peptide. As a result, over a mildly acidic pH-range species of N-terminal Glu-peptides are present which carry both groups uncharged, and, therefore, it is possible that Qpct could stabilize the intermediate of intramolecular cyclization into the pGlu-peptide, i.e. if the γ-carboxylic group is protonated, the carbonyl carbon is electrophilic enough to allow nucleophilic attack by the unprotonated α-amino group. At this pH the hydroxyl ion functions as a leaving group. These assumptions are corroborated by the pH-dependence data obtained for the Qpct catalyzed conversion of Glu-βNA. In contrast to glutamine conversion of Gln-βNA by Qpct, the pH-optimum of catalysis shifts to the acidic range around pH 6.0, i.e. the pH-range, in which substrate molecule species are simultaneously abundant carrying a protonated 7-carboxyl and unprotonated α-amino group.

[3] = pKa of α-amino group determined by titration; type: physicochemical
Source text: as §1

[4] = cited from earlier work

T1 sequence (Q16769 29-361): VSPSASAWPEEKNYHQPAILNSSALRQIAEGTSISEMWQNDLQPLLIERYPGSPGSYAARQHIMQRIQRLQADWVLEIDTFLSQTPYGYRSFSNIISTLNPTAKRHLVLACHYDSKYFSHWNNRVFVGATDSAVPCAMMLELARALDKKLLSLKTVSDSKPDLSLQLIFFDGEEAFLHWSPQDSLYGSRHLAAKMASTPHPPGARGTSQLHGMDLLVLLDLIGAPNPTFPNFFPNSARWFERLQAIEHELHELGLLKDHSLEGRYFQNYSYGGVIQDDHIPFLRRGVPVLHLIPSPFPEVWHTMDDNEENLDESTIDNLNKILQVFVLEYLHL

| Compound | inhibition characteristics of Qpct (Qpct [1]) | Inhibition of a mammalian Qpct (mammalian Qpct) | other results |
| --- | --- | --- | --- |
| c1cnc2c(c1)ccc1cccnc12 [1,10-phenanthroline] | inhibition | Inhibition of a mammalian Qpct was only detected |  |
| Oc1cccc2cccnc12 [8-hydroxy-quinoline] | inhibition |  |  |
| O=C(O)CN(CCN(CC(=O)O)CC(=O)O)CC(=O)O [EDTA] |  | did not inhibit |  |
| N[C@@H](CCC(=O)O)C(=O)Nc1ccc2ccccc2c1 [Glu-βNA] |  |  | kinetically determined pKa-value (Qpct [2]): 7.55+/−0.02; pKa of the α-amino group, determined by titration [3]: 7.57±0.05 |
| N[C@@H](CCC(=O)O)C(=O)O [Glutamate] |  |  | pKa-value for the α-amino moiety [4]: ~7.5; pKa-value for the γ-carboxylic moiety [4]: about 4.2 |
| O=C(O)c1cccc(C(=O)O)n1 [dipicolinic acid] | inhibition |  |  |
| reduced 6-methylpterin |  | Inhibition of a mammalian Qpct was only detected |  |
